# Measurements from patent US20210255193A1, “LYSINE REACTIVE PROBES AND USES THEREOF” (The Scripps Research Institute, priority 2017, published 2021).
# Columns and labels:
# [1] = target: T1, AP1G1 AP-1 complex subunit gamma-1 (Homo sapiens, UniProt O43747); experiment: competitive isoTOP-ABPP; format: binding; settings: for R value (DMSO/fragment) for probe 1 labeling: O43747_K214; for R value (DMSO/fragment) for probe 1 labeling / isoTOP-ABPP reactivity ratio at lysine O43747_K214 / isoTOP-ABPP ratio (R) at liganded lysine O43747_K214: 50 uM, in vitro; for R value (DMSO/fragment) for probe 1 labeling / isoTOP-ABPP reactivity ratio at lysine O43747_K214: 231 sol; for isoTOP-ABPP ratio (R) at liganded lysine O43747_K214: sol, 231; for isoTOP-ABPP ratio, lysine O43747_K214: 50 uM_231_sol_in vitro
# T1 construct: isoTOP-ABPP experiments performed in cell lysates (in vitro); endogenous in cells; host or cells: MDA-MB-231 soluble lysate
# T1 sequence (O43747 1-822): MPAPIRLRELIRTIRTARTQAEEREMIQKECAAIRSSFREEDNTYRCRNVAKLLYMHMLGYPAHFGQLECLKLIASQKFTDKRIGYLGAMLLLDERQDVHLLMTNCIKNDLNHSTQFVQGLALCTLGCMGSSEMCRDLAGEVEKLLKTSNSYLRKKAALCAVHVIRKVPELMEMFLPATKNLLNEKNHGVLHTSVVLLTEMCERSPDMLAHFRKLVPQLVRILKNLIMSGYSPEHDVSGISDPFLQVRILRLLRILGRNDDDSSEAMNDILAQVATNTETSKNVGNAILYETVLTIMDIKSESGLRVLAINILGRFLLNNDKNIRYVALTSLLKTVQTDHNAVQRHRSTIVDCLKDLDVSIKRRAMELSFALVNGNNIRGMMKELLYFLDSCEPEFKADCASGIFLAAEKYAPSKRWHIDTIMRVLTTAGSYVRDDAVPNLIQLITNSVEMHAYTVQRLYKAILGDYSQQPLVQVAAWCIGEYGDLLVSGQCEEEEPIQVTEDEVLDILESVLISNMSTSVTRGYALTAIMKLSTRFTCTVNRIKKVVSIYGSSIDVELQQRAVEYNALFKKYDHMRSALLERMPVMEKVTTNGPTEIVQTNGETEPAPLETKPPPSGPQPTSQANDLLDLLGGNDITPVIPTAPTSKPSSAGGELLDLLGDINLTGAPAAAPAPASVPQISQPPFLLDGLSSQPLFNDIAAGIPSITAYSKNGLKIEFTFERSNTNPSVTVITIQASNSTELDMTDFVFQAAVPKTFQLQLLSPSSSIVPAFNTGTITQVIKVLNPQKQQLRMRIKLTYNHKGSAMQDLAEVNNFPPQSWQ
# Summary of the method: (§1)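 Fragments at 50 μM (activated esters) or 100 μM (guanidinylating agents) were incubated with 0.5 ml lysate before probe labeling. After 0.1 mM STP-alkyne for 1 h, samples were clicked to isotopically distinct TEV tags, and R taken as DMSO-over-compound MS1 peak-area ratio.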
# [2] = target: T2, TRMT10C Mitochondrial ribonuclease P protein 1 (Homo sapiens, UniProt Q7L0Y3); experiment: competitive isoTOP-ABPP; format: binding; settings: for R value (DMSO/fragment) for probe 1 labeling: Q7L0Y3_K325; for R value (DMSO/fragment) for probe 1 labeling / isoTOP-ABPP reactivity ratio at lysine Q7L0Y3_K325 / isoTOP-ABPP ratio (R) at liganded lysine Q7L0Y3_K325: 50 uM, in vitro; for R value (DMSO/fragment) for probe 1 labeling / isoTOP-ABPP reactivity ratio at lysine Q7L0Y3_K325: 231 sol; for isoTOP-ABPP ratio (R) at liganded lysine Q7L0Y3_K325: sol, 231; for isoTOP-ABPP ratio, lysine Q7L0Y3_K325: 50 uM_231_sol_in vitro
# T2 construct: isoTOP-ABPP experiments performed in cell lysates (in vitro); endogenous in cells; host or cells: soluble proteome of human cancer cell lines (MDA-MB-231; Ramos and Jurkat also prepared)
# T2 sequence (Q7L0Y3 40-403): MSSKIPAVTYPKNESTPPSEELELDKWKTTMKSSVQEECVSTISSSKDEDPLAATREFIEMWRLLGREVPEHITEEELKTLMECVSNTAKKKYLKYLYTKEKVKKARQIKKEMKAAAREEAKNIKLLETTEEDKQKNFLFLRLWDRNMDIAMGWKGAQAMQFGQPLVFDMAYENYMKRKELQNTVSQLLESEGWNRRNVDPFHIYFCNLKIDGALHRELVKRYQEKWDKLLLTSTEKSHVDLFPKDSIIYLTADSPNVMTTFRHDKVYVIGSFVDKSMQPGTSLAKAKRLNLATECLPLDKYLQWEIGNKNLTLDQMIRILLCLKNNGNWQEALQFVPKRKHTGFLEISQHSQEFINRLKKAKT
# Summary of the method: as §1
Structure (SMILES),isoTOP-ABPP reactivity ratio at lysine O43747_K214 [1],isoTOP-ABPP ratio (R) at liganded lysine O43747_K214 [1],isoTOP-ABPP ratio (R) at liganded lysine Q7L0Y3_K325 [2],also measured
"O=C(CCc1cn(-c2ccccc2)nc1-c1ccccc1)Oc1c(F)c(F)c(F)c(F)c1F [fragment 19, Pentafluorophenyl 3-(1,3-diphenyl-1H-pyrazol-4-yl)propanoate]",,,,R value (DMSO/fragment) for probe 1 labeling [1]: 1.0
"O=C(Oc1c(F)c(F)c(F)c(F)c1F)C(c1ccccc1)c1ccccc1 [fragment 20, Pentafluorophenyl 2,2-diphenylacetate]",,,,R value (DMSO/fragment) for probe 1 labeling [1]: 0.9; R value (DMSO/fragment) for probe 1 labeling [2]: 1.1
"O=C(Oc1c(F)c(F)c(F)c(F)c1F)c1cc(C(F)(F)F)cc(C(F)(F)F)c1 [fragment 21, Pentafluorophenyl 3,5-bis(trifluoromethyl)benzoate]",,,,R value (DMSO/fragment) for probe 1 labeling [1]: 0.9; R value (DMSO/fragment) for probe 1 labeling [2]: 0.9
"Cn1cc(CC(=O)Oc2c(F)c(F)c(F)c(F)c2F)c2ccccc21 [fragment 22, Pentafluorophenyl 2-(1-methyl-1H-indol-3-yl)acetate]",,,,R value (DMSO/fragment) for probe 1 labeling [1]: 1.1; R value (DMSO/fragment) for probe 1 labeling [2]: 1.1
"COc1cc(CCC(=O)Oc2c(F)c(F)c(F)c(F)c2F)cc(OC)c1OC [fragment 23, Pentafluorophenyl 3-(3,4,5-trimethoxyphenyl)propanoate]",,,,R value (DMSO/fragment) for probe 1 labeling [1]: 1.1; R value (DMSO/fragment) for probe 1 labeling [2]: 1.3
"O=C(Oc1c(F)c(F)c(F)c(F)c1F)C1CCN(C(=O)OCc2ccccc2)CC1 [fragment 24, 1-Benzyl 4-(pentafluorophenyl) piperidine-1,4-dicarboxylate]",1.0,,,isoTOP-ABPP reactivity ratio at lysine Q7L0Y3_K325 [2]: 1.4
"O=C(Oc1c(F)c(F)c(F)c(F)c1F)c1ccc2ccccc2n1 [fragment 25, Pentafluorophenyl quinoline-2-carboxylate]",1.0,,,isoTOP-ABPP reactivity ratio at lysine Q7L0Y3_K325 [2]: 1.1
"O=C(CCc1coc2cc(F)ccc2c1=O)Oc1c(F)c(F)c(F)c(F)c1F [fragment 26, Pentafluorophenyl 3-(7-fluoro-4-oxo-4H-chromen-3-yl)propanoate]",1.1,,,
"O=C(CN1C(=O)c2ccccc2C1=O)Oc1c(F)c(F)c(F)c(F)c1F [fragment 27, Pentafluorophenyl 2-(1,3-dioxoisoindolin-2-yl)acetate]",0.9,,,
"CCn1cc(C(=O)Oc2c(F)c(F)c(F)c(F)c2F)c(=O)c2ccc(C)nc21 [fragment 28, Pentafluorophenyl 1-ethyl-7-methyl-4-oxo-1,4-dihydro-1,8-naphthyridine-3-carboxylate]",1.0,,,
"O=C(CCc1cn(-c2ccccc2)nc1-c1ccccc1)Oc1ccc([N+](=O)[O-])cc1[N+](=O)[O-] [fragment 29, 2,4-Dinitrophenyl 3-(1,3-diphenyl-1H-pyrazol-4-yl)propanoate]",1.0,,,isoTOP-ABPP reactivity ratio at lysine Q7L0Y3_K325 [2]: 0.7
"O=C(Oc1ccc([N+](=O)[O-])cc1[N+](=O)[O-])C(c1ccccc1)c1ccccc1 [fragment 30, 2,4-Dinitrophenyl 2,2-diphenylacetate]",1.1,,,isoTOP-ABPP reactivity ratio at lysine Q7L0Y3_K325 [2]: 1.1
"O=C(Oc1ccc([N+](=O)[O-])cc1[N+](=O)[O-])c1cc(C(F)(F)F)cc(C(F)(F)F)c1 [fragment 31, 2,4-Dinitrophenyl 3,5-bis(trifluoromethyl)benzoate]",0.9,,,isoTOP-ABPP reactivity ratio at lysine Q7L0Y3_K325 [2]: 1.1
"Cn1cc(CC(=O)Oc2ccc([N+](=O)[O-])cc2[N+](=O)[O-])c2ccccc21 [fragment 32, 2,4-Dinitrophenyl 2-(1-methyl-1H-indol-3-yl)acetate]",6.6,,,isoTOP-ABPP reactivity ratio at lysine Q7L0Y3_K325 [2]: 1.0
"COc1cc(CCC(=O)Oc2ccc([N+](=O)[O-])cc2[N+](=O)[O-])cc(OC)c1OC [fragment 33, 2,4-Dinitrophenyl 3-(3,4,5-trimethoxyphenyl)propanoate]",1.7,,,isoTOP-ABPP reactivity ratio at lysine Q7L0Y3_K325 [2]: 0.9
"O=C(Oc1ccc([N+](=O)[O-])cc1[N+](=O)[O-])C1CCN(C(=O)OCc2ccccc2)CC1 [fragment 34, 1-Benzyl 4-(2,4-dinitrophenyl) piperidine-1,4-dicarboxylate]",,1.7,1.0,
"O=C(Oc1ccc([N+](=O)[O-])cc1[N+](=O)[O-])c1ccc2ccccc2n1 [fragment 35, 2,4-Dinitrophenyl quinoline-2-carboxylate]",,1.0,1.0,
"O=C(CCc1coc2cc(F)ccc2c1=O)Oc1ccc([N+](=O)[O-])cc1[N+](=O)[O-] [fragment 36, 2,4-Dinitrophenyl 3-(7-fluoro-4-oxo-4H-chromen-3-yl)propanoate]",,1.1,,
"O=C(Oc1ccc([N+](=O)[O-])cc1[N+](=O)[O-])c1ccc(-c2ccccc2)cc1 [fragment 37, 2,4-Dinitrophenyl [1,1′-biphenyl]-4-carboxylate]",,0.9,1.0,
"O=C(CC12CC3CC(CC(C3)C1)C2)Oc1ccc([N+](=O)[O-])cc1[N+](=O)[O-] [fragment 38, 2,4-Dinitrophenyl 2-(adamantan-1-yl)acetate]",,0.9,0.8,
"O=C(Oc1ccc([N+](=O)[O-])cc1[N+](=O)[O-])c1ccc(Oc2ccccc2)cc1 [fragment 39, 2,4-Dinitrophenyl 4-phenoxybenzoate]",,0.8,0.9,
"O=C(Oc1ccc([N+](=O)[O-])cc1[N+](=O)[O-])c1ccccc1Nc1cccc(C(F)(F)F)c1 [fragment 40, 2,4-Dinitrophenyl 2-((3-(trifluoromethyl)phenyl)amino)benzoate]",,0.9,0.9,
"CC(C)(C)OC(=O)NCCCC(=O)Oc1ccc([N+](=O)[O-])cc1[N+](=O)[O-] [fragment 41, 2,4-Dinitrophenyl 4-((tert-butoxycarbonyl)amino)butanoate]",,1.0,0.9,
"O=C(Oc1ccc([N+](=O)[O-])cc1[N+](=O)[O-])C(c1ccccc1)(c1ccccc1)c1ccccc1 [fragment 42, 2,4-Dinitrophenyl 2,2,2-triphenylacetate]",,0.8,1.0,
"CC(=O)Oc1ccc([N+](=O)[O-])cc1[N+](=O)[O-] [fragment 43, 2,4-Dinitrophenyl acetate]",,1.1,1.0,
"N#Cc1ccc(C(=O)Oc2ccc([N+](=O)[O-])cc2[N+](=O)[O-])cc1 [fragment 44, 2,4-Dinitrophenyl 4-cyanobenzoate]",,,,"isoTOP-ABPP ratio, lysine O43747_K214 [1]: 0.9; isoTOP-ABPP ratio, lysine Q7L0Y3_K325 [2]: 1.3"
"O=C(CCc1ccc2c(c1)OCO2)Oc1ccc([N+](=O)[O-])cc1[N+](=O)[O-] [fragment 45, 2,4-Dinitrophenyl 3-(benzo[d][1,3]dioxol-5-yl)propanoate]",,,,"isoTOP-ABPP ratio, lysine O43747_K214 [1]: 1.2; isoTOP-ABPP ratio, lysine Q7L0Y3_K325 [2]: 1.0"
"O=C(Oc1c(F)c(F)cc(F)c1F)c1cc(C(F)(F)F)cc(C(F)(F)F)c1 [fragment 48, 2,3,5,6-Tetrafluorophenyl 3,5-bis(trifluoromethyl)benzoate]",,,,"isoTOP-ABPP ratio, lysine O43747_K214 [1]: 0.8"
